{"source": "patent US20110020272A1", "about": "“COMBINATION THERAPY FOR TREATING HEPATITIS VIRAL INFECTION” (priority 2009, published 2011)", "key": {"[1]": {"system": "sub-genomic HCV Con 1 isolate in Luc-ubi-neo/ET Replicon cells", "assay": "HCV RNA replication in Luc-ubi-neo/ET Replicon cells, combined/sequential PI and IFN", "assay_type": "cell-based", "description": "Replicon cells are in general Luc-ubi-neo/ET Replicon cells, which are derived from Huh7 cells and which harbor a sub-genomic HCV Con 1 isolate with a luciferase reporter gene. These so-called Replicon cells allow for in vitro screening of antiviral substances by autonomous HCV RNA replication.\nAfter a 24 hour combined incubation, the medium was changed and cells were incubated for another 48 hours with PI alone. After these 3 days of incubation, HCV RNA replication was determined with respect to the non-treated control."}, "[2]": {"system": "Luc-ubi-neo/ET Replicon cells", "assay": "Cytotoxicity in Replicon cells", "assay_type": "cell-based, human", "details": "750 nM PI and 0.5 U/ml IFN", "quoted_text": "Luc-ubi-neo/ET-cells were seeded and incubated with PI and IFN (Roferon A, Roche) for 24 hours on the following day. […] After a 24 hour combined incubation, the medium was changed and cells were incubated for another 48 hours with PI alone. After these 3 days of incubation, HCV RNA replication was determined with respect to the non-treated control."}, "[3]": {"details": "PI and IFN 24 h, subsequently PI alone 48 h, 750 nM PI and 0.5 U/ml IFN"}}, "data": [{"smiles": "O=C1CN(N=C[C@H](Cc2ccccc2)NC(=O)[C@H](Cc2c[nH]c3ccccc23)NC(=O)[C@H](Cc2c[nH]c3ccccc23)NC(=O)OCc2ccccc2)C(=O)N1", "note": "[S-2209, S,S,S-[1-[1-[1-Benzyl-2-(2,4-dioxo-imidazolidin-1-ylimino)-ethylcarbamoyl]-2-(1H-indol-3-yl)-ethylcarbamoyl]-2-(1H-indol-3-yl)-ethyl]-carbamic acid benzyl ester]", "values": [{"measurement": "basal replication (HCV RNA replication)", "setting": "[1]; [3]", "result": "approximately 10%"}, {"measurement": "inhibition of RNA replication", "setting": "[1]; [3]", "result": 90, "unit": "%"}, {"measurement": "effect of combination of PI and IFN on HCV-bearing cells", "setting": "[1]; combined or sequential treatment", "result": "synergistic effect"}, {"measurement": "inhibition of HCV RNA replication", "setting": "[1]; initial experiments, IFN 0.5 U/ml, PI 500-1000 nM", "result": "only a low inhibition"}, {"measurement": "cytotoxicity", "setting": "[2]", "result": "no cytotoxicity is observed"}]}]}
